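Dose response: 5 concentrations. Exposure: 48 h. Format: 96-well plates. Endpoint: linear interpolation; highest concentration if not reached. GI50 is the concentration that inhibits growth by half.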 The source made the active and inactive calls. No stated cut-off is given here; in the data, active = GI50 up to about 1.1 µM and inactive = higher.
How the values were obtained:
Assay in all cases: NCI anticancer screen, dose series, 48 h
HL-60 = system: HL-60
LOX IMVI = system: LOX IMVI
MDA-MB-435 = system: MDA-MB-435
MDA-N = system: MDA-N
MOLT-4 = system: MOLT-4
OVCAR-3 = system: OVCAR-3
OVCAR-4 = system: OVCAR-4
PC-3 = system: PC-3
RPMI-8226 = system: RPMI-8226
SF-295 = system: SF-295
SF-539 = system: SF-539
SN12C = system: SN12C
SR = system: SR
SW-620 = system: SW-620
T47D = system: T47D
TK-10 = system: TK-10
UACC-257 = system: UACC-257
UO-31 = system: UO-31
NCI-H460 = system: NCI-H460
MDA-MB-231 = system: MDA-MB-231

Measured: GI50

CCN(CC)C(=O)N1CN(c2ccccc2)C2(CCN(CCCSc3ccc(F)cc3)CC2)C1=O
inactive: HL-60 5.37 µM | LOX IMVI 2.84 µM | MDA-MB-435 12.8 µM | MDA-N 6.15 µM | MOLT-4 3.25 µM | OVCAR-3 5.13 µM | OVCAR-4 6.75 µM | PC-3 6.56 µM | RPMI-8226 5.81 µM | SF-295 12.1 µM | SF-539 8.34 µM | SN12C 9.18 µM | SR 3.8 µM | SW-620 6.75 µM | T47D 4.01 µM | TK-10 10.3 µM | UACC-257 3.32 µM | UO-31 7.19 µM

COc1cn2c(cc1=O)COc1ccc(-c3ccccc3)cc1-2
inactive: HL-60 41.3 µM | LOX IMVI 36.9 µM | MDA-MB-435 39.7 µM | MDA-N 49.5 µM | MOLT-4 44.5 µM | NCI-H460 37.6 µM | OVCAR-3 > 55.7 µM | OVCAR-4 > 85.1 µM | PC-3 43.2 µM | RPMI-8226 42.9 µM | SF-295 > 78.2 µM | SN12C 77.3 µM | SR 15.2 µM | SW-620 > 100 µM | T47D 20.5 µM | TK-10 20 µM | UACC-257 41 µM | UO-31 28.4 µM

O=S(=O)(c1ccccc1)C(c1ccc2ccccc2n1)S(=O)(=O)c1ccccc1
inactive: HL-60 > 100 µM | LOX IMVI > 100 µM | MDA-MB-231 > 100 µM | MDA-MB-435 > 10 µM | MDA-N > 100 µM | MOLT-4 > 100 µM | NCI-H460 > 100 µM | OVCAR-3 > 100 µM | OVCAR-4 55.6 µM | PC-3 > 100 µM | RPMI-8226 > 100 µM | SF-295 > 100 µM | SF-539 > 100 µM | SN12C > 100 µM | SR > 100 µM | SW-620 > 100 µM | TK-10 > 100 µM | UACC-257 > 100 µM | UO-31 > 100 µM

O=S(=O)(Nc1nccs1)c1ccc(Nc2nc(-c3cccs3)nc3ccc(I)cc23)cc1
inactive: HL-60 42.3 µM | LOX IMVI 14.6 µM | MDA-MB-435 11.8 µM | MDA-N 32.5 µM | MOLT-4 14.2 µM | NCI-H460 9.73 µM | OVCAR-3 14.2 µM | OVCAR-4 26.9 µM | PC-3 5.12 µM | RPMI-8226 4.74 µM | SF-295 11.8 µM | SF-539 17.8 µM | SN12C 25.4 µM | SR 22.9 µM | SW-620 13 µM | T47D 8.43 µM | TK-10 9.51 µM | UACC-257 4.49 µM | UO-31 17 µM

O=C1C(Cl)=C(N2CCN(CCOCCO)CC2)C(=O)c2ncccc21
inactive: HL-60 3.35 µM | LOX IMVI > 10 µM | MDA-MB-231 > 10 µM | MDA-MB-435 2.65 µM | MOLT-4 > 10 µM | NCI-H460 > 10 µM | OVCAR-3 > 10 µM | OVCAR-4 > 10 µM | PC-3 > 10 µM | RPMI-8226 7.1 µM | SF-295 > 10 µM | SF-539 > 10 µM | SN12C > 10 µM | SR > 10 µM | SW-620 > 10 µM | T47D 2.23 µM | TK-10 > 10 µM | UACC-257 > 10 µM

Cc1c(C)c2c(c(N)c1C#N)C(=O)N(O)C2=O
inactive: HL-60 > 100 µM | MDA-MB-231 > 100 µM | MDA-MB-435 > 100 µM | MOLT-4 > 100 µM | NCI-H460 > 100 µM | OVCAR-3 > 100 µM | OVCAR-4 > 100 µM | PC-3 > 100 µM | RPMI-8226 > 100 µM | SF-295 > 100 µM | SF-539 > 100 µM | SN12C > 100 µM | SR > 100 µM | SW-620 > 100 µM | T47D > 100 µM | TK-10 > 100 µM | UACC-257 > 100 µM | UO-31 > 100 µM

COc1cccc(N2C(=O)CSC2c2cc(OC)c(OC)c(OC)c2)c1 (centres undefined)
inactive: HL-60 31.7 µM | LOX IMVI 32.8 µM | MDA-MB-231 69.7 µM | MDA-MB-435 3.85 µM | MDA-N 3.95 µM | MOLT-4 29.8 µM | NCI-H460 27.8 µM | OVCAR-3 20.7 µM | OVCAR-4 47.3 µM | PC-3 55.1 µM | RPMI-8226 29 µM | SF-295 21.8 µM | SF-539 24.5 µM | SN12C 44.1 µM | SR 5.75 µM | SW-620 39.7 µM | TK-10 > 100 µM | UACC-257 20.9 µM | UO-31 36.8 µM
